Data: ChEMBL document CHEMBL4130444, “1,4-Naphthoquinones as inhibitors of Itch, a HECT domain-E3 ligase, and tumor growth suppressors in multiple myeloma” (Eur J Med Chem, 2017)

What was measured:
[1] = test system: HCT-116; experiment: Antiproliferative activity against human HCT116 cells incubated for 48 hrs by SRB assay; type: functional; details: HCT-116, 48 h
[2] = test system: MDA-MB-231; experiment: Antiproliferative activity against human MDA-MB-231 cells incubated for 48 hrs by SRB assay; type: functional; details: MDA-MB-231, 48 h

| GI50 [1] [µM] | GI50 [2] [µM] | Compound |
| --- | --- | --- |
| > 10 | > 10 | O=C(Nc1ccccc1)c1ccc(CNC2=C(Cl)C(=O)c3ccccc3C2=O)cc1 |
| > 10 | > 10 | O=C(Nc1ccc2cn[nH]c2c1)c1ccc(CNC2=C(Cl)C(=O)c3ccccc3C2=O)cc1 |
